Measurements: patent publication US20110077294A1, “R-(-) / S-(+)-7-[3-N SUBSTITUTED AMINO-2 HYDROXYPROPOXY] FLAVONES” (priority 2006, published 2011)

Experiments:
Assay type in all cases: in vivo
C57BL/KsBom-db/db mice [1] = assay: Oral glucose tolerance test (OGTT) on day 10 in db/db mice; settings: 25 mg/kg; for Blood glucose profile, 0 min post glucose load / Blood glucose % change compared to control, 0 min post glucose load: OGTT day 10, 0 min; for Blood glucose % change compared to control, 0 min post glucose load / Blood glucose % change compared to control, 30 min post glucose load / Blood glucose % change compared to control, 60 min post glucose load / Blood glucose % change compared to control, 90 min post glucose load / Blood glucose % change compared to control, 120 min post glucose load / Blood glucose % change compared to control, −30 min post glucose load: vs sham; for Blood glucose profile, 30 min post glucose load / Blood glucose % change compared to control, 30 min post glucose load: OGTT day 10, 30 min; for Blood glucose profile, 60 min post glucose load / Blood glucose % change compared to control, 60 min post glucose load: OGTT day 10, 60 min; for Blood glucose profile, 90 min post glucose load / Blood glucose % change compared to control, 90 min post glucose load: OGTT day 10, 90 min; for Blood glucose profile, 120 min post glucose load / Blood glucose % change compared to control, 120 min post glucose load: OGTT day 10, 120 min; for Blood glucose profile, −30 min post glucose load / Blood glucose % change compared to control, −30 min post glucose load: OGTT day 10, −30 min
Method: (§1) C57BL/KsBom-db/db mice (12-18 weeks old), weighing around 35+g bred in the animal house of CDRI, Lucknow, were used in the present experiments. The mice were housed in groups of 3 to 5 (same sex) in a room controlled for temperature (23±2.0 ° C.) and 12/12 hours light/dark cycle (lights on at 6.00 am). Body weight of each animal was measured daily from day 1 to day 10 of the experiment. All animals had free access to fresh water and normal pellet diet except on the day of the postprandial protocol (day 6) and during the overnight fast before the OGTT on day 10. The animals always had access to water during experimental periods. Blood glucose was checked every morning up till day 10. On day 10 an oral glucose tolerance test (OGTT) was performed after an overnight fasting. Blood glucose was measured at −30.0 min and test compounds were administered. The blood glucose was again measured at 0 min just post treatment and at this juncture glucose solution was given at a dose of 3 gm/kg to all the groups including the vehicle treated group. The blood glucose levels were checked at 30 min, 60 min, 90 min and 120 min post glucose administration. The data was analyzed for its significance on Prism software.

C57BL/KsBom-db/db mice [2] = assay: Blood glucose profile of db/db mice during daily treatment (antihyperglycemic activity); settings: for Blood glucose % change compared to control, day 1: day 1, vs sham; for Blood glucose % change compared to control, day 2: day 2, vs sham; for Blood glucose % change compared to control, day 3: day 3, vs sham; for Blood glucose % change compared to control, day 4: day 4, vs sham; for Blood glucose % change compared to control, day 5: day 5, vs sham; for Blood glucose % change compared to control, day 6: day 6, vs sham; for Blood glucose % change compared to control, day 7: day 7, vs sham; for Blood glucose % change compared to control, day 8: day 8, vs sham; for Blood glucose % change compared to control, day 9: day 9, vs sham
Method: as §1

C57BL/KsBom-db/db mice [3] = assay: Serum lipid profile of treated db/db mice (antidyslipidemic activity); settings: 25 mg/kg; for Cholesterol % change compared to control / HDL-Chol % change compared to control / Triglycerides % change compared to control: vs sham
Method: as §1

C57BL/KsBom-db/db mice [4] = assay: as above; settings: db/db mice, test dose 25 mg/kg

## CC(C)NCC(O)COc1ccc2c(=O)cc(-c3cc(O)cc(O)c3)oc2c1 (stereo in doubt) [S-002-857 (R), (R)-(−)-7-(2-Hydroxy-3-isopropylaminopropoxy)-3′,5′-dihydroxy flavone]
C57BL/KsBom-db/db mice [1]
  oral glucose tolerance compared to sham treated (in words): slight improvement in glucose tolerance
  Blood glucose profile, 0 min post glucose load: 16.3 ± 3.91 mM
  Blood glucose % change compared to control, 0 min post glucose load: −7.05%
  Blood glucose profile, 30 min post glucose load: 27.6 ± 1.53 mM
  Blood glucose % change compared to control, 30 min post glucose load: −16.7%
  Blood glucose profile, 60 min post glucose load: 24.4 ± 2.99 mM
  Blood glucose % change compared to control, 60 min post glucose load: −10.0%
  Blood glucose profile, 90 min post glucose load: 20.6 ± 2.08 mM
  Blood glucose % change compared to control, 90 min post glucose load: −7.39%
  Blood glucose profile, 120 min post glucose load: 16.0 ± 1.73 mM
  Blood glucose % change compared to control, 120 min post glucose load: −14.3%
  Blood glucose profile, −30 min post glucose load: 11.8 ± 5.21 mM
  Blood glucose % change compared to control, −30 min post glucose load: −8.31%
C57BL/KsBom-db/db mice [2]; 25 mg/kg
  blood glucose profile compared to sham treated (in words): marginal fall in blood glucose profile
  Blood glucose, day 1 post treatment: 12.5 ± 2.55 mM
  Blood glucose % change compared to control, day 1: 0.0%
  Blood glucose, day 2 post treatment: 12.3 ± 2.67 mM
  Blood glucose % change compared to control, day 2: −1.25%
  Blood glucose, day 3 post treatment: 12.1 ± 2.02 mM
  Blood glucose % change compared to control, day 3: −3.28%
  Blood glucose, day 4 post treatment: 11.5 ± 1.86 mM
  Blood glucose % change compared to control, day 4: −11.5%
  Blood glucose, day 5 post treatment: 11.9 ± 2.74 mM
  Blood glucose % change compared to control, day 5: −13.1%
  Blood glucose, day 6 post treatment: 11.6 ± 2.73 mM
  Blood glucose % change compared to control, day 6: −10.7%
  Blood glucose, day 7 post treatment: 11.7 ± 1.78 mM
  Blood glucose % change compared to control, day 7: −22.0%
  Blood glucose, day 8 post treatment: 11.0 ± 0.35 mM
  Blood glucose % change compared to control, day 8: −13.4%
  Blood glucose, day 9 post treatment: 11.5 ± 1.00 mM
  Blood glucose % change compared to control, day 9: −14.0%
C57BL/KsBom-db/db mice [2]; 25 mg/kg, day 10
  Blood glucose, day 10 post treatment: 11.9 ± 5.21 mM
C57BL/KsBom-db/db mice [2]; 25 mg/kg, day 10, vs sham
  Blood glucose % change compared to control, day 10: −8.30%
C57BL/KsBom-db/db mice [3]
  Serum lipid profile: Cholesterol: 160 ± 6.66 mg/dL
  Serum lipid profile: HDL-Chol: 59.0 ± 2.65 mg/dL
  Serum lipid profile: Triglycerides: 130 ± 3.06 mg/dL
  serum cholesterol, triglycerides (lipid profile) compared to sham treated (in words): no statistically significant difference
  Cholesterol % change compared to control: −6.18%
  HDL-Chol % change compared to control: +5.35%
  Triglycerides % change compared to control: −1.72%

## CC(C)(C)NC[C@@H](O)COc1ccc2c(=O)cc(-c3cc(OCc4ccccc4)cc(OCc4ccccc4)c3)oc2c1 [S-002-853 (R), (R)-(−)-7-(3-tert-butylamino-2-hydroxypropoxy)-3′,5′-dibenzyloxyflavone]
C57BL/KsBom-db/db mice [1]
  oral glucose tolerance compared to sham treated (in words): no difference in oral glucose tolerance curve
  Blood glucose profile, 0 min post glucose load: 20.3 ± 4.74 mM
  Blood glucose % change compared to control, 0 min post glucose load: −3.30%
  Blood glucose profile, 30 min post glucose load: 34.3 ± 16.9 mM
  Blood glucose % change compared to control, 30 min post glucose load: +3.70%
  Blood glucose profile, 60 min post glucose load: 25.9 ± 9.75 mM
  Blood glucose % change compared to control, 60 min post glucose load: 0.00%
  Blood glucose profile, 90 min post glucose load: 24.5 ± 9.13 mM
  Blood glucose % change compared to control, 90 min post glucose load: +17.0%
  Blood glucose profile, 120 min post glucose load: 23.0 ± 10.0 mM
  Blood glucose % change compared to control, 120 min post glucose load: +24.9%
  Blood glucose profile, −30 min post glucose load: 13.6 ± 0.46 mM
  Blood glucose % change compared to control, −30 min post glucose load: 17.4%
C57BL/KsBom-db/db mice [2]; 25 mg/kg
  antihyperglycemic and antidyslipidemic/antihyperlipidemic activity (in words): insignificant antihyperglycemic or antihyperlipidemic effects
  blood glucose profile compared to sham treated (in words): no significant difference in the blood glucose profile between the two groups at any day
  Blood glucose, day 1 post treatment: 12.0 ± 2.52 mM
  Blood glucose % change compared to control, day 1: +1.1%
  Blood glucose, day 2 post treatment: 12.4 ± 2.65 mM
  Blood glucose % change compared to control, day 2: −31.9%
  Blood glucose, day 3 post treatment: 10.3 ± 1.33 mM
  Blood glucose % change compared to control, day 3: −24.1%
  Blood glucose, day 4 post treatment: 13.3 ± 4.61 mM
  Blood glucose % change compared to control, day 4: −18.1%
  Blood glucose, day 5 post treatment: 12.3 ± 4.32 mM
  Blood glucose % change compared to control, day 5: −24.0%
  Blood glucose, day 6 post treatment: 12.1 ± 3.82 mM
  Blood glucose % change compared to control, day 6: −19.8%
  Blood glucose, day 7 post treatment: 14.5 ± 5.49 mM
  Blood glucose % change compared to control, day 7: −31.9%
  Blood glucose, day 8 post treatment: 13.4 ± 4.54 mM
  Blood glucose % change compared to control, day 8: −35.4%
  Blood glucose, day 9 post treatment: 13.5 ± 4.66 mM
  Blood glucose % change compared to control, day 9: −38.3%
C57BL/KsBom-db/db mice [2]; test dose 25 mg/kg, day given in brackets
  Comparative antihyperglycemic activity: Average Fall: 38.3%
C57BL/KsBom-db/db mice [4]
  Comparative antihyperlipidemic activity: HDL-C: +8.06^ns
  Comparative antihyperlipidemic activity: T-Chol: −3.72^ns
  Comparative antihyperlipidemic activity: TG: −9.72^ns
C57BL/KsBom-db/db mice [3]
  HDL-cholesterol levels compared to sham treated (in words): no significant difference in the HDL-cholesterol levels
  Serum lipid profile: Cholesterol: 144.0 ± 7.37 mg/dL
  Serum lipid profile: HDL-Chol: 58.0 ± 6.24 mg/dL
  Serum lipid profile: Triglycerides: 132.0 ± 11.5 mg/dL
  serum cholesterol, triglycerides (lipid profile) compared to sham treated (in words): no significant lowering in either the case of serum cholesterol or triglycerides
  Cholesterol % change compared to control: −3.72%
  HDL-Chol % change compared to control: +8.06%
  Triglycerides % change compared to control: −9.72%
